{
  "source": "patent US20220041559A1",
  "about": "“BENZO-AND PYRIDO-PYRAZOLES AS PROTEIN KINASE INHIBITORS” (ROTTAPHARM BIOTECH S.R.L., priority 2019, published 2022)",
  "key": {"[1]": {"target": "T1, FYN (Homo sapiens, UniProt P06241)", "T1 construct": "purchased CarnaBioscience", "T1 sequence (P06241 whole entry)": "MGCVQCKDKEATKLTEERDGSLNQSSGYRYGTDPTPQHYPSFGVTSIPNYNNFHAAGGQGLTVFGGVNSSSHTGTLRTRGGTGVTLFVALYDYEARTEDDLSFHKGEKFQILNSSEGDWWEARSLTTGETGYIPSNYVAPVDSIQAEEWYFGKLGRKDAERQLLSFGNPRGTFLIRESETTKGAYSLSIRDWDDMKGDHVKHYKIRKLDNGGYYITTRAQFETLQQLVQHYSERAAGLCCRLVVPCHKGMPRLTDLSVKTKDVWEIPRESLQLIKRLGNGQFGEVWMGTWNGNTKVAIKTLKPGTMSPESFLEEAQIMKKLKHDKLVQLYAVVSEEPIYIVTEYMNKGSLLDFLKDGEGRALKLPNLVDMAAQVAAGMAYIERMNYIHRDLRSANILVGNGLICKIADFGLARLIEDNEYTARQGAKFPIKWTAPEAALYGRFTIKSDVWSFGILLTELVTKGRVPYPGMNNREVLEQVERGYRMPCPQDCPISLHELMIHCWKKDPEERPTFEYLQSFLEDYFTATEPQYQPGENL", "assay": "Z'-LYTE in vitro kinase assay, FYN kinase inhibition", "assay_type": "biochemical", "conditions": "for IC50: near-Km ATP, 60 minutes at 25° C.", "experimental": "Assays to determine the kinase inhibitory activity of compounds were performed using an automatic liquid handling device (Microlab STAR Hamilton) and Z′-LYTE™ Kinase Assay Platform (Invitrogen), a Fluorescence Resonance Energy Transfer (FRET)-based assay platform compatible with high-throughput screening (HTS) applications. The assay employs a fluorescence-based, coupled-enzyme format and utilizes the differential sensitivity of phosphorylated and non-phosphorylated peptides to proteolytic cleavage.\nTest compounds were evaluated towards active FYN (CarnaBioscience). The enzyme was incubated in a 384 low-volume microplate with a synthetic peptide-substrate, ATP and different inhibitor concentrations, ranging from 10^−10 M up to 10^−5 M final concentration. Samples representing the 0% inhibition (or total enzymatic activity) were in the presence of compound diluent (1% DMSO final) in Reaction Buffer (50 mM Hepes, 10 mM MgCl2, 1 mM EGTA, 0.01% Brij-35, pH 7.5).\nA near-Km ATP concentrations for the kinase and an optimal enzyme concentration that phosphorylates 20-40% of the Z′-LYTE™ Tyr 2 Peptide in a one-hour incubation, were selected. All reagents were diluted in reaction buffer and the kinase reaction was carried out in a total volume of 10 μl, for 60 minutes at 25° C. The 0% Phosphorylation (i.e. no ATP) and 100% Phosphorylation (i.e. synthetically phosphorylated peptide supplied) Assay Controls, included in each plate, allowed to calculate the percent phosphorylation achieved in the specific reaction well. The 0% Inhibition and 0% Phosphorylation (i.e. 100% Inhibition) Controls define the dynamic range in the screen. At the end of incubation, a secondary reaction (the Development Reaction) started by adding 5 μl of Development Reagent, containing a site-specific protease that recognizes and cleaves non-phosphorylated peptides, and was interrupted after 60 minutes with 5 μl/sample of Stop Reagent. Measurement of the Coumarin (Ex. 400 nm, Em. 460 nm) and Fluorescein (Ex. 400 nm, Em. 535 nm) emission signals were performed by a fluorescence plate reader (Envision, PerkinElmer).\nResults are expressed as percentage of inhibition and the IC50 values were calculated by non-linear curve fitting using GraphPad™ Prism software."}, "[2]": {"target": "T2, VEGFR2 (KDR) kinase (Homo sapiens, UniProt P35968)", "T2 construct": "purchased SignalChem", "T2 sequence (P35968 20-1356)": "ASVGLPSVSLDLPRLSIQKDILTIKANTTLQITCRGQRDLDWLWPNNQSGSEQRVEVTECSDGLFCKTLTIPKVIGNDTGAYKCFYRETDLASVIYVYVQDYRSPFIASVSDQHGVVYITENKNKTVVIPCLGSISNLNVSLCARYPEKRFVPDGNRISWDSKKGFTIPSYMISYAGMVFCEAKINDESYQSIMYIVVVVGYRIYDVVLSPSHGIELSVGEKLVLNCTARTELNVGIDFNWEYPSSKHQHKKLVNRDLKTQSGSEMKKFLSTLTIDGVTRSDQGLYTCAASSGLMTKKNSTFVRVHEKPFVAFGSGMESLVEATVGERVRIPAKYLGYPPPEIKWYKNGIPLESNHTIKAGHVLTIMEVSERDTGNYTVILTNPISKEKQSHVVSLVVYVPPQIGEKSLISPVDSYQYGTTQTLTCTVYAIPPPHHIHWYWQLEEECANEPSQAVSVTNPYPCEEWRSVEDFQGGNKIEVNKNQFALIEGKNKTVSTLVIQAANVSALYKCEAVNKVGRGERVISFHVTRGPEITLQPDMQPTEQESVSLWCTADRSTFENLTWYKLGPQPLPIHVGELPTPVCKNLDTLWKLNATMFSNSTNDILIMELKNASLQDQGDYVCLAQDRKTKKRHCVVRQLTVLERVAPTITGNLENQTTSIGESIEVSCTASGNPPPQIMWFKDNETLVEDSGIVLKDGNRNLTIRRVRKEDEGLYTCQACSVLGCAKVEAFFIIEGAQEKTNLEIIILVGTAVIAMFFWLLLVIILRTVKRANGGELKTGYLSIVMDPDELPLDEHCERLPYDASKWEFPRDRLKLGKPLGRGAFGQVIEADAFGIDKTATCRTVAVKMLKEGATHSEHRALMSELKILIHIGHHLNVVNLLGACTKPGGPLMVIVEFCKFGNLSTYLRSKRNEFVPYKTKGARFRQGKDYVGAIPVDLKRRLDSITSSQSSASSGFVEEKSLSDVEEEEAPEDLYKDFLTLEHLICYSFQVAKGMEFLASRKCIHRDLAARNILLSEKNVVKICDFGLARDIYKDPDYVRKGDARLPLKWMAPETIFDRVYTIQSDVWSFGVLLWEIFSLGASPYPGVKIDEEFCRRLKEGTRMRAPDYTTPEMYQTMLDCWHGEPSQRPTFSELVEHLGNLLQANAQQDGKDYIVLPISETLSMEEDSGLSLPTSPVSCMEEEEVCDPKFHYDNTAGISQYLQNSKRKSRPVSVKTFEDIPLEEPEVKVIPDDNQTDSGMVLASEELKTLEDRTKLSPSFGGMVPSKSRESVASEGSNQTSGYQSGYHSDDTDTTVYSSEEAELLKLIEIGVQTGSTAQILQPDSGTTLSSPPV", "assay": "ADP-Glo in vitro kinase assay, VEGFR2 kinase inhibition", "assay_type": "biochemical", "conditions": "for IC50: ATP 50 μM, 30 minutes at room temperature; for VEGFR2 kinase inhibition, result in words: Table 19", "experimental": "(§1) The ADP-Glo™ Kinase Assay (Promega), monitoring ADP produced in the kinase reaction, was performed in two steps. In the first one, after the kinase reaction, the ADP-Glo™ Reagent is added to terminate the kinase reaction and deplete the remaining ATP. In the second step, the Kinase Detection Reagent is added to simultaneously convert ADP to ATP (ATPn or newly synthesized ATP) and introduce luciferase and luciferin, allowing the ATPn to be measured (luciferase/luciferin reaction). The amount of light generated correlates with the amount of ATPn (indirectly with the ADP produced in kinase reaction).\n(§2) Kinase reaction was performed in 10 μl in a white 384-well plate, inhibitor solutions in DMSO/Kinase buffer (40 mM Tris-Cl, 20 mM MgCl2, 0.1 mg/ml BSA, 50 μM DTT, pH 7.5) and VEGFR2 (KDR) kinase in Kinase buffer (SignalChem, 0.5 ng/μl final concentration in assay) were pre-incubate 15 minutes at room temperature. At the kinase concentration selected, a signal-to negative control ratio >10 was calculated, according to supplier indication. In samples representing the Total enzymatic activity or the negative control (no enzyme), inhibitor solution was replaced by diluents (1 DMSO in kinase buffer, final concentration) or ultra-pure water, respectively.\n(§3) The range of inhibitor concentrations was from 10^−11 M up to 3×10^−6 M (final concentration in assay) and each experimental point was performed in duplicate.\n(§4) To start the reaction, a substrate/ATP mix (50 μM final concentration, near to ATP Km value) was added to each sample and after 30 minutes incubation at room temperature, ADP-Glo™ Reagent and Kinase Detection Reagent, incubated in sequence according to the respective incubation time and supplier indication, allowed to stop and develop the kinase reaction. The luminescence was measured with a plate-reading luminometer (Envision 2104 Multilabel reader, PerkinElmer). The percentage of inhibition was calculated towards the Total enzymatic activity and the corresponding curves were analyzed by non linear curve fitting (GraphPad software, version 7 for Windows), allowing to calculate the IC50 value±standard error of the value"}, "[3]": {"target": "human FynB (Homo sapiens, UniProt P06241)", "sequence (P06241 271-524 limits assumed)": "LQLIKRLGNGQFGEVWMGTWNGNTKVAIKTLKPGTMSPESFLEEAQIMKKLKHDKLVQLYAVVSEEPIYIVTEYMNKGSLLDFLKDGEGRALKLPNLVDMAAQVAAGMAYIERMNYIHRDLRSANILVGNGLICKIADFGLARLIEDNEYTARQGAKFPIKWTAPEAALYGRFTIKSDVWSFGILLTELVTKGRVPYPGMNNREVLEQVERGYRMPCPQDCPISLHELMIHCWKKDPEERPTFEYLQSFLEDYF", "assay": "Inhibition of FynB-induced Tau(Y18)-phosphorylation (cell-based assay, HEK293)", "conditions": "for IC50: HEK293 over-expressing FynB and Tau 0N4R, incubation 6 or 24 hours, ELISA; for Inhibition of FynB-induced Tau(Y18)-phosphorylation, result in words: summary of Table 20", "experimental": "HEK293 cells (Human Embryonic Kidney 293) were seeded at 6×10^5 in poly-D-lysine 12 w microplates and grown adherent in medium DMEM/10% FBS at 37° C. with 5% CO2. After 24 h, cells were transfected in order to over-express either constitutively active form of human FynB and Tau protein (isoform 0N4R), through an optimized Lipofectamine® 3000 Transfection protocol (Life Technologies™). A non-transfected sample (negative control) was included in every experiment.\nTwenty-four hours from transfection, treatments of cells were performed by adding fresh medium containing diluent (DMSO 0.1% final concentration) or test compounds. The incubation was carried out for 6 or 24 hours at 37° C. with 5% CO2. All experimental conditions were performed in duplicate.\nAt the end of the incubation, the medium was removed and cellular lysates were obtained by adding M-PER lysis buffer containing a 1× Protease/Phosphatase inhibitors cocktail. Then, lysates were transferred into Eppendorf tubes, sonicated and stored at −80° C.\nProtein content was measured by Bradford method. Lysates were analyzed by a customized ELISA assay for Tau phosphorylation (Tyrosine 18 residue-Fyn mediated) and Total amount determination. The net OD values were used to calculate the inhibitory effect of compounds."}, "[4]": {"target": "EGFR (Homo sapiens, UniProt P00533)", "sequence (P00533 25-1210)": "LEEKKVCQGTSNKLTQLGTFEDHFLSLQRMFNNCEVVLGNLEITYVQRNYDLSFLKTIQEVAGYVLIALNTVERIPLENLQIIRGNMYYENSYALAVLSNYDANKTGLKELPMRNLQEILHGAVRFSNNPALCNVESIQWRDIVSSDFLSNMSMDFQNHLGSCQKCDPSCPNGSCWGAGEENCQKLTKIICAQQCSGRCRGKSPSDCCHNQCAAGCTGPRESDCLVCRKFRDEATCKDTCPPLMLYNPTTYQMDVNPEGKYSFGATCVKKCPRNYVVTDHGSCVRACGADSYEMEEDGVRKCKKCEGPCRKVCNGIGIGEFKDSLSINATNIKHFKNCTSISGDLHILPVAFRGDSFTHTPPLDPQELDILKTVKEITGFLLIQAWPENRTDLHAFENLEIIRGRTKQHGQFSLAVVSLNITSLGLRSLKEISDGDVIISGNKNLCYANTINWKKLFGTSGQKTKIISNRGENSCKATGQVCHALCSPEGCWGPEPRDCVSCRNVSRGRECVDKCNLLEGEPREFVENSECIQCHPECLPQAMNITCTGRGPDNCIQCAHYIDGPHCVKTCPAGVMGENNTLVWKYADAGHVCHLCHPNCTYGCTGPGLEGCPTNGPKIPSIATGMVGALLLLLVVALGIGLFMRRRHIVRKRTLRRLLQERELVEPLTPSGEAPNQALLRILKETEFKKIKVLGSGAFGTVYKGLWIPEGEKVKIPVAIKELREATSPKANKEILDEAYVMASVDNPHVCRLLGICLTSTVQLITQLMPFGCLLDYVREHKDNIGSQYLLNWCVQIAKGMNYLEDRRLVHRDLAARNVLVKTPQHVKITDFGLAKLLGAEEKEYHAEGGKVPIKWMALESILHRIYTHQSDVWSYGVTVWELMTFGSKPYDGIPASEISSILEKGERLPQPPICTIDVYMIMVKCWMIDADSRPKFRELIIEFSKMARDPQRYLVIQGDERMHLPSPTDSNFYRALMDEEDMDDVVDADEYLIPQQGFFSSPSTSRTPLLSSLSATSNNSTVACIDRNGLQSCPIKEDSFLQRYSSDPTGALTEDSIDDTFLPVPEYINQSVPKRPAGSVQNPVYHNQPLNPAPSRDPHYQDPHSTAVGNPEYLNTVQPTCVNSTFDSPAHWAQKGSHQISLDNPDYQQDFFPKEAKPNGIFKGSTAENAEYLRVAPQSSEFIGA", "assay": "ADP-Glo in vitro kinase assay, EGFR kinase inhibition", "assay_type": "biochemical", "parameters": "purchased SignalChem", "conditions": "for IC50: ATP 10 μM, 30 minutes at room temperature", "experimental": "as §1\nas §2, with “EGFR” for “VEGFR2 (KDR)”, “2.5” for “0.5”, “selected” for “selected,”, “activity (no inhibitor)” for “activity”\nas §3\nas §4, with “mix (ATP 10” for “mix (50”, “the estimate.” for “the value”"}, "[5]": {"test_system": "U87MG", "assay": "Cell viability, ViaCount assay, U87MG", "assay_type": "cell-based, human", "conditions": "tested cell lines (U87MG, U373)", "experimental": "U87MG: a human glioblastoma astrocytoma from ATCC. Grown in DMEM medium supplemented with 10% FBS at 37° C. with CO2.\nCell viability and total cell count was performed with ViaCount Assay on Guava® Systems, which was able to distinguish viable and non-viable cells based on differential permeabilities of two DNA-binding dyes in the Guava ViaCount® Reagent. 2×10^4 cancer cells were plated in 24 well in DMEM 10%. After 72 h cells were treated with the different compounds for 24, 72 h or 7 days, with a medium change and a second treatment with the product on day 4. At the end of the incubation period the analysis was done following the kit instructions."}},
  "data": [
    {"smiles": "Cc1ccc(Nc2ccc3c(NC(=O)c4ccc(C5CCN(C)CC5)cc4)n[nH]c3n2)cc1", "note": "[Compound 23, 4-(1-methylpiperidin-4-yl)-N-(6-(p-tolyamino)-1H-pyrazolo[3,4-b]pyridin-3-yl)benzamide]", "values": [
      {"measurement": "IC50", "setting": "[1]", "result": 111, "unit": "nM"},
      {"measurement": "IC50", "setting": "[2]", "result": 2.6, "unit": "nM"},
      {"measurement": "IC50", "setting": "[3]", "result": 230, "unit": "nM"},
      {"measurement": "IC50", "setting": "[4]", "result": "≥ 1000", "unit": "nM"}
    ]},
    {"smiles": "CN1CCC(c2ccc(C(=O)Nc3n[nH]c4nc(Nc5ccc6c(c5)OCO6)ccc34)cc2)CC1", "note": "[Compound 28, N-(6-(benzo[d][1,3]dioxol-5-ylamino)-1H-pyrazolo[3,4-b]pyridin-3-yl)-4-(1-methylpiperidin-4-yl)benzamide]", "values": [
      {"measurement": "FYN kinase inhibition, result in words", "setting": "[1]; Table 17", "result": "more active"},
      {"measurement": "IC50", "setting": "[1]", "result": 72, "unit": "nM"},
      {"measurement": "IC50", "setting": "[2]", "result": 1, "unit": "nM"},
      {"measurement": "VEGFR2 kinase inhibition, result in words", "setting": "[2]", "result": "more potent"},
      {"measurement": "IC50", "setting": "[3]", "result": 100, "unit": "nM"},
      {"measurement": "Inhibition of FynB-induced Tau(Y18)-phosphorylation, result in words", "setting": "[3]", "result": "best inhibitors"},
      {"measurement": "reduction of cell viability, result in words", "setting": "[5]", "result": "active in reducing cell viability"},
      {"measurement": "IC50", "setting": "[4]", "result": "≥ 1000", "unit": "nM"}
    ]},
    {"smiles": "Cc1ccc(Nc2ccc3c(NC(=O)c4ccc(C5CCN(C)CC5)cc4)n[nH]c3n2)c(F)c1", "note": "[Compound 30, N-(6-((2-fluoro-4-methylphenyl)amino)-1H-pyrazolo[3,4-b]pyridin-3-yl)-4-(1-methylpiperidin-4-yl)benzamide]", "values": [
      {"measurement": "IC50", "setting": "[1]", "result": 115, "unit": "nM"},
      {"measurement": "IC50", "setting": "[2]", "result": 1, "unit": "nM"},
      {"measurement": "VEGFR2 kinase inhibition, result in words", "setting": "[2]", "result": "more potent"},
      {"measurement": "IC50", "setting": "[3]", "result": 669, "unit": "nM"},
      {"measurement": "IC50", "setting": "[4]", "result": 155, "unit": "nM"}
    ]},
    {"smiles": "CN1CCN(c2ccc(C(=O)Nc3n[nH]c4nc(Nc5ccccc5F)ccc34)cc2)CC1", "note": "[Compound 48, N-(6-((2-fluorophenyl)amino)-1H-pyrazolo[3,4-b]pyridin-3-yl)-4-(4-methylpiperazin-1-yl)benzamide]", "values": [
      {"measurement": "IC50", "setting": "[1]", "result": 212, "unit": "nM"},
      {"measurement": "IC50", "setting": "[2]", "result": 1, "unit": "nM"},
      {"measurement": "VEGFR2 kinase inhibition, result in words", "setting": "[2]", "result": "more potent"},
      {"measurement": "IC50", "setting": "[3]", "result": 259, "unit": "nM"},
      {"measurement": "Inhibition of FynB-induced Tau(Y18)-phosphorylation, result in words", "setting": "[3]", "result": "best inhibitors"},
      {"measurement": "IC50", "setting": "[4]", "result": 15, "unit": "nM"},
      {"measurement": "EGFR kinase inhibition, result in words", "setting": "[4]; text summary of Table 18", "result": "more active"}
    ]}
  ]
}
